Measured values from article PMC8842277, “Highly Antiproliferative Latonduine and Indolo[2,3-c]quinoline Derivatives: Complex Formation with Copper(II) Markedly Changes the Kinase Inhibitory Profile” (Journal of Medicinal Chemistry, 2022).
Where two headings read alike, the source gives them in different places.

Experiments:
[1] = system: normal human embryonal lung fibroblast cells (MRC-5); assay: MTT antiproliferative assay; format: cell-based; settings: read-out: IC50 MRC-5 benign, mean
Protocol: (§1) The in vitro antiproliferative activity of the compounds was tested in doxorubicin-sensitive Colo205 and multidrug-resistant Colo320 human colon adenocarcinoma cell lines as well as in normal human embryonal lung fibroblast cells (MRC-5) by MTT assay.
(§2) Human colonic adenocarcinoma cell lines Colo 205 doxorubicin-sensitive (ATCC-CCL-222) and Colo 320/MDR-LRP multidrug resistant over-expressing ABCB1 (MDR1)-LRP (ATCC-CCL-220.1) were purchased from LGC Promochem, Teddington, UK. The cells were cultured in an RPMI 1640 medium supplemented with 10% heat-inactivated fetal bovine serum, 2 mM L-glutamine, 1 mM Na-pyruvate, and 10 mM HEPES. The semi-adherent human colon cancer cells were detached with Trypsin-Versene (EDTA) solution for 5 min at 37 °C. An MRC-5 human embryonal lung fibroblast cell line (ATCC CCL-171) was purchased from LGC Promochem, Teddington, UK. The cells were cultured in Eagle’s minimal essential medium (EMEM, containing 4.5 g L^–1 glucose) supplemented with a non-essential amino acid mixture, a selection of vitamins, and 10% heat-inactivated fetal bovine serum. The HCT-116 colon carcinoma cells and isogenic p53-knock-out subline were a gift of Prof. Bert Vogelstein from The Johns Hopkins Oncology Center. Cells were cultured in McCoy’s 5A medium supplemented with 10% heat-inactivated fetal bovine serum and 4 mM L-glutamine. All cell lines were incubated at 37 °C, in a 5% CO2, 95% air atmosphere.
(§3) MRC-5 non-cancerous human embryonic lung fibroblast and human colonic adeno-carcinoma cell lines (doxorubicin-sensitive Colo 205 and multidrug resistant Colo 320 colonic adenocarcinoma cells) were used to determine the effect of compounds on cell growth. The effects of increasing concentrations of compounds on cell growth were tested in 96-well flat-bottomed microtiter plates. The compounds were dissolved in DMSO and stock solutions of 10 mM were prepared. These were further diluted in the appropriate cell culture medium by twofold serial dilution starting from 100 or 10 μM for the compounds. The adherent human embryonal lung fibroblast cells were cultured in 96-well flat-bottomed microtiter plates using EMEM supplemented with 10% heat-inactivated fetal bovine serum. The density of the cells was adjusted to 1 × 10^4 cells in 100 μL per well, the cells were seeded for 24 h at 37 °C, 5% CO2, then the medium was removed from the plates containing the cells, and the dilutions of compounds previously made in a separate plate were added to the cells in 200 μL. In the case of the colonic adenocarcinoma cells, the twofold serial dilutions of compounds were prepared in 100 μL of RPMI 1640, horizontally. The semi-adherent colonic adenocarcinoma cells were treated with Trypsin-Versene (EDTA) solution. They were adjusted to a density of 1 × 10^4 cells in 100 μL of RPMI 1640 medium and were added to each well, with the exception of the medium control wells. The final volume of the wells containing compounds and cells was 200 μL. The culture plates were incubated at 37 °C for 72 h; at the end of the incubation period, 20 μL of MTT (thiazolyl blue tetrazolium bromide, Sigma) solution (from a stock solution of 5 mg mL^–1) was added to each well. After incubation at 37 °C for 4 h, 100 μL of sodium dodecyl sulfate (SDS) (Sigma) solution (10% in 0.01 M HCI) was added to each well and the plates were further incubated at 37 °C overnight. Cell growth was determined by measuring the optical density (OD) at 540/630 nm with a Multiscan EX ELISA reader (Thermo Labsystems, Cheshire, WA, USA). […] Curves were fitted by GraphPad Prism software[57] using the sigmoidal dose–response model (comparing variable and fixed slopes). The IC50 values were obtained from at least three independent experiments. Tests in adherent HCT-116 colon carcinoma cells and an isogenic p53-knock-out subline thereof were performed in a similar manner, with 1.5 × 10^3 cells seeded in 100 μL of McCoy’s 5A medium (Sigma-Aldrich) per well. […]

[2] = system: multidrug-resistant Colo320 human colon adenocarcinoma cells; assay: MTT antiproliferative assay; format: cell-based; settings: for IC50: MTT, 72 h; for selectivity factor (SF) Colo320: IC50 MRC-5/IC50 Colo320
Protocol: as §1, §2, §3

[3] = system: doxorubicin-sensitive Colo205 human colon adenocarcinoma cells; assay: MTT antiproliferative assay; format: cell-based; settings: for IC50: MTT, 72 h; for selectivity factor (SF) Colo205: IC50 MRC-5/IC50 Colo205
Protocol: as §1, §2, §3

[4] = Thermodynamic solubility, UV–vis of saturated solutions
Protocol: The concentration of the compounds was determined by UV–vis spectrophotometry using stock solutions of the compounds with a known concentration dissolved in pure DMSO and 50% (v/v) DMSO/buffered aqueous solution for the calibration.

[5] = Proton dissociation constants by UV–vis titration; format: physicochemical; settings: 30–70% (w/w) DMSO–water, 298 K, I = 0.10 M (KCl)
Protocol: The protonation processes of HL^1nm and its morpholine counterpart HL^1 (Chart 3) and the solution stability of their copper(II) complexes (1nm and 1) were characterized by UV–vis spectrophotometry. […] Based on the characteristic changes in the UV–vis spectra for HL^1nm in the pH range 2–6 (Figure 3a), two relatively well-separated proton dissociation processes were observed and their pKa values were determined (Table 1).
An Agilent Carry 8454 diode array spectrophotometer was used to record the UV–visible (UV–vis) spectra in the interval 200–800 nm. The path length was 2 or 0.5 cm. Spectrophotometric titrations were performed on samples containing the proligands HL^1, HL^1nm, or their copper(II) complexes (1 and 1nm; see Chart 2) by a KOH solution in the presence of 0.1 M KCl in a DMSO:water 30:70 (w/w) mixture as a solvent at 25.0 ± 0.1 °C in the pH range from 2 to 11. […] An Orion 710A pH meter equipped with a Metrohm combined electrode (type 6.0234.100) and a Metrohm 665 Dosimat burette were used for the pH measurements and titrations. […] The average water ionization constant (pKw) is 14.52 ± 0.05, which corresponds well to the literature data.[103] Argon was passed over the solutions during the titrations. Proton dissociation constants (pKa) of the ligand, overall stability constants (log β) of the copper(II) complexes, and the individual spectra of the various species present in the solution were calculated by the computer program PSEQUAD.[104] β (MpLqHr) is defined for the general equilibrium pM + qL + rH MpLqHr as β (MpLqHr) = [MpLqHr]/[M]^p[L]^q[H]^r where M denotes the copper(II) ion and L the completely deprotonated ligand. The calculations were always made from the experimental titration data measured in the absence of any precipitate in the solution.

Colo320 cells = assay: Apoptosis assay, Annexin-V-FITC/PI flow cytometry; settings: 3 h induction
Protocol: An apoptosis assay was performed by flow cytometry via the analysis of multidrug-resistant Colo320 cells stained with Annexin-V-FITC and propidium iodide (PI).
Colo320 cells were treated at the indicated concentration of the compounds. The dual parametric dot plots combining Annexin-V (FL1) and PI (FL3) fluorescence show the viable cell population in the lower left quadrant Annexin-V–/PI– (Q4), the early apoptotic cells in the lower right quadrant Annexin-V+/PI– (Q3), and the late apoptotic and necrotic cells in the upper right quadrant Annexin-V+/PI+ (Q2).
The assay was carried out for selected compounds using an Annexin V-FITC Apoptosis Detection Kit (cat. no. APOAF-50TST) from Sigma according to the manufacturer’s instructions. The concentration of the Colo320 cell suspension was adjusted to approximately 0.5 × 10^6 cells/mL in an RPMI 1640 medium, and the cell suspension was distributed in 1 mL of aliquots into a 24-well plate and then incubated overnight at 37 °C and 5% CO2. On the following day, the medium was removed and replaced by 1 mL of RPMI medium containing the compounds except the control samples. […] After the incubation period, the samples were washed with PBS and fresh RPMI 1640 medium was added to the samples. The cells were incubated overnight at 37 °C and 5% CO2. The next day, 200 μL of 0.25% Trypsin (Trypsin-Versen) was added to the samples until cells appeared detached followed by the addition of 400 μL of RPMI 1640 medium supplemented with 10% bovine serum. The cells were collected in Eppendorf tubes and centrifuged at 2000g for 2 min. The harvested cells were resuspended in fresh serum-free RPMI 1640 culture medium. After this step, the apoptosis assay was carried out according to the instructions of the manufacturer. The fluorescence was analyzed immediately using a ParTec CyFlow flow cytometer (Partec GmbH, Münster, Germany).
• Apoptosis and DNA binding studies […]

[6] = pH 5, 20 mM MES buffer, water, 298 K
[7] = pH 7.4, 20 mM HEPES, water, 298 K

Row | SMILES | selectivity factor (SF) Colo320 [2] | selectivity factor (SF) Colo205 [3] | IC50 ([1]; 72 h) [nM] | IC50 [2] [nM] | IC50 [3] [nM] | Thermodynamic solubility (S) [4, 6] [µM] | Thermodynamic solubility (S) [4, 7] [µM] | other results
1 | C/C(=N\N=C1/NCc2ccccc2-c2c1[nH]c1ccc(Br)cc21)c1ccccn1 [HL^4nm] | 0.01 | 1.22 | – | – | – | – | – | IC50 ([1]; Homo sapiens, MRC5, 72 h): 111 nM; IC50 ([2]; Homo sapiens, COLO 320): 8190 nM; IC50 ([3]; Homo sapiens, COLO 205): 91 nM
2 | CC(=NNc1nc2ccccc2c2c1[nH]c1ccccc12)c1ccc(CN2CCOCC2)cn1.[Cl][Cu][Cl] [compound 7, CuCl2(HL^7)·0.5H2O] | 4.38 | 6.65 | 652 | 149 | 98 | – | – | Thermodynamic solubility (S) ([4]; pH 5): 89.7 µM; Thermodynamic solubility (S) ([4]; pH 7.4): 38.3 µM
3 | C(=NNC1=NCc2ccccc2-c2c1[nH]c1ccccc21)c1ccccn1.[Cl][Cu][Cl] [1nm] | – | – | – | – | – | – | – | pKa [Cu(HL^1nm)]^2+ [5]: 4.32; pKa [Cu(L^1nm)]^+ [5]: 7.09
4 | C(=NN=c1[nH]c2ccccc2c2c1[nH]c1ccccc12)c1ccccn1 [HL^5nm] | – | – | – | – | – | 1.1 | 0.3 | –
5 | COc1cccc2c1C(=O)c1c(O)c3c(c(O)c1C2=O)C[C@@](O)(C(=O)CO)C[C@@H]3O[C@H]1C[C@H](N)[C@H](O)[C@H](C)O1 [doxorubicin, reference compound] | 2.03 | 15.44 | – | – | – | – | – | IC50 ([1]; Homo sapiens, MRC5, 72 h): 11000 nM; IC50 ([2]; Homo sapiens, COLO 320): 5430 nM; IC50 ([3]; Homo sapiens, COLO 205): 712 nM
6 | C(=NNc1nc2ccccc2c2c1[nH]c1ccccc12)c1ccccn1.[Cl][Cu][Cl] [5nm] | – | – | – | – | – | 134 | 5.7 | –
7 | Brc1ccc2[nH]c3c(NN=Cc4ccccn4)nc4ccccc4c3c2c1.[Cl][Cu][Cl] [6nm] | – | – | – | – | – | 8.9 | 3.1 | –
8 | c1ccc2c(c1)Nc1c(ccc3ccccc13)S2 [M627, 12H-benzo[α]phenothiazine, reference compound] | – | – | – | – | – | – | – | Cell death % Q1 (Colo320 cells; 10 µM): 4.59%; Early apoptosis % Q3 (Colo320 cells; 10 µM): 12.4%; Late apoptosis and necrosis % Q2 (Colo320 cells; 10 µM): 31.5%; Cell death % Q1 (Colo320 cells; 20 µM): 7.85%; Early apoptosis % Q3 (Colo320 cells; 20 µM): 11.1%; Late apoptosis and necrosis % Q2 (Colo320 cells; 20 µM): 26.1%
9 | Brc1ccc2[nH]c3c(NN=Cc4ccc(CN5CCOCC5)cn4)nc4ccccc4c3c2c1.[Cl][Cu][Cl] [compound 6, CuCl2(HL^6)·1.5H2O] | 0.26 | 0.20 | 221 | 851 | 1090 | – | – | Thermodynamic solubility (S) ([4]; pH 5): 6.6 µM; Thermodynamic solubility (S) ([4]; pH 7.4): 0.4 µM
10 | CC(=NNC1=NCc2ccccc2-c2c1[nH]c1ccc(Br)cc21)c1ccccn1.[Cl][Cu][Cl] [4nm] | 0.54 | 2.29 | 190 | 350 | 83 | – | – | –
